The values that follow come from US8927587B2, “Chemical compounds” (Pfizer Limited, priority 2012, dated 2015).

Molecules are shown by their SMILES.

The target in the assay is T1, hNav1.8 (Homo sapiens, UniProt Q9Y5Y9).
T1 construct: host or cells: HEK cells, stably transfected
As to the kind of experiment: hNav1.8 whole-cell patch-clamp electrophysiology (conventional or PatchXpress 7000) in stably transfected HEK cells. The class given is cell-based. The following applies: estimated IC50 calculated from single point % inhibition; HEK cells expressing hNav1.8; 8 sec prepulse to V1/2, 20 msec step to 0 mV; average of replicates; read-out: Nav1.8 EIC50. The source says:
The ability of the benzimidazole derivatives of the formula (I) to inhibit the Nav1.8 channel may be measured using the assay described below.
HEK cells stably transfected with hNav1.8, purchased from Millipore (Millipore Corp., Billerica, Mass. 01821), were maintained according to manufacturer's instructions. For electrophysiological studies, cells were removed from the culture flask by brief trypsinization and re-plated at low density onto glass cover slips. Cells were typically used for electrophysiological experiments within 24 to 72 h after plating.
Cover slips containing HEK cells expressing hNav1.8 were placed in a bath on the stage of an inverted microscope and perfused (approximately 1 ml/min) with extracellular solution of the following composition: 138 mM NaCl, 2 mM CaCl2, 5.4 mM KCl, 1 mM MgCl2, 10 mM glucose, and 10 mM HEPES, pH 7.4, with NaOH. […] The osmolarity of the extracellular and intracellular solutions was 300 mOsm/kg and 295 mOsm/kg, respectively. All recordings were made at room temperature (22-24° C.) using AXOPATCH 200B amplifiers and PCLAMP software (Axon Instruments, Burlingame, Calif.).
hNav1.8 currents in HEK cells were measured using the whole-cell configuration of the patch-clamp technique (Hamill et al., 1981). Uncompensated series resistance was typically 2 to 5 mega ohms and >85% series resistance compensation was routinely achieved. As a result, voltage errors were negligible and no correction was applied. Current records were acquired at 20 to 50 KHz and filtered at 5 to 10 KHz.
HEK cells stably transfected with hNav1.8 were viewed under Hoffman contrast optics and placed in front of an array of flow pipes emitting either control or compound-containing extracellular solutions. All compounds were dissolved in dimethyl sulfoxide to make 10 mM stock solutions, which were then diluted into extracellular solution to attain the final concentrations desired.
The voltage-dependence of inactivation was determined by applying a series of depolarizing prepulses (8 sec long in 10 mV increments) from a negative holding potential. The voltage was then immediately stepped to 0 mV to assess the magnitude of the sodium current. Currents elicited at 0 mV were plotted as a function of prepulse potential to allow estimation of the voltage at which 50% of the channels were inactivated (midpoint of inactivation or V1/2). Compounds were tested for their ability to inhibit hNav1.8 sodium channels by activating the channel with a 20 msec voltage step to 0 mV following an 8 second conditioning prepulse to the empirically determined V1/2. Compound effect (% inhibition) was determined by difference in current amplitude before and after application of test compounds. For ease of comparison, “estimated IC50” values were calculated from single point electrophysiology data by the following equation, (tested concentration, uM)×(100-% inhibition/% inhibition). Inhibition values<20% and >80% were excluded from the calculation.
In some cases electrophysiological assays were conducted with PatchXpress 7000 hardware and associated software (Molecular Devices Corp). All assay buffers and solutions were identical to those used in conventional whole-cell voltage clamp experiments described above. hNav1.8 cells were grown as above to 50%-80% confluency and harvested by trypsinization. Trypsinized cells were washed and resuspended in extracellular buffer at a concentration of 1×10^6 cells/ml. The onboard liquid handling facility of the PatchXpress was used for dispensing cells and application of test compounds. Determination of the voltage midpoint of inactivation was as described for conventional whole-cell recordings. Cells were then voltage-clamped to the empirically determined V1/2 and current was activated by a 20 msec voltage step to 0 mV.
Estimated IC50 values for the compounds of formula (I) exemplified above are as follows. […]

T1 sequence (Q9Y5Y9 whole entry): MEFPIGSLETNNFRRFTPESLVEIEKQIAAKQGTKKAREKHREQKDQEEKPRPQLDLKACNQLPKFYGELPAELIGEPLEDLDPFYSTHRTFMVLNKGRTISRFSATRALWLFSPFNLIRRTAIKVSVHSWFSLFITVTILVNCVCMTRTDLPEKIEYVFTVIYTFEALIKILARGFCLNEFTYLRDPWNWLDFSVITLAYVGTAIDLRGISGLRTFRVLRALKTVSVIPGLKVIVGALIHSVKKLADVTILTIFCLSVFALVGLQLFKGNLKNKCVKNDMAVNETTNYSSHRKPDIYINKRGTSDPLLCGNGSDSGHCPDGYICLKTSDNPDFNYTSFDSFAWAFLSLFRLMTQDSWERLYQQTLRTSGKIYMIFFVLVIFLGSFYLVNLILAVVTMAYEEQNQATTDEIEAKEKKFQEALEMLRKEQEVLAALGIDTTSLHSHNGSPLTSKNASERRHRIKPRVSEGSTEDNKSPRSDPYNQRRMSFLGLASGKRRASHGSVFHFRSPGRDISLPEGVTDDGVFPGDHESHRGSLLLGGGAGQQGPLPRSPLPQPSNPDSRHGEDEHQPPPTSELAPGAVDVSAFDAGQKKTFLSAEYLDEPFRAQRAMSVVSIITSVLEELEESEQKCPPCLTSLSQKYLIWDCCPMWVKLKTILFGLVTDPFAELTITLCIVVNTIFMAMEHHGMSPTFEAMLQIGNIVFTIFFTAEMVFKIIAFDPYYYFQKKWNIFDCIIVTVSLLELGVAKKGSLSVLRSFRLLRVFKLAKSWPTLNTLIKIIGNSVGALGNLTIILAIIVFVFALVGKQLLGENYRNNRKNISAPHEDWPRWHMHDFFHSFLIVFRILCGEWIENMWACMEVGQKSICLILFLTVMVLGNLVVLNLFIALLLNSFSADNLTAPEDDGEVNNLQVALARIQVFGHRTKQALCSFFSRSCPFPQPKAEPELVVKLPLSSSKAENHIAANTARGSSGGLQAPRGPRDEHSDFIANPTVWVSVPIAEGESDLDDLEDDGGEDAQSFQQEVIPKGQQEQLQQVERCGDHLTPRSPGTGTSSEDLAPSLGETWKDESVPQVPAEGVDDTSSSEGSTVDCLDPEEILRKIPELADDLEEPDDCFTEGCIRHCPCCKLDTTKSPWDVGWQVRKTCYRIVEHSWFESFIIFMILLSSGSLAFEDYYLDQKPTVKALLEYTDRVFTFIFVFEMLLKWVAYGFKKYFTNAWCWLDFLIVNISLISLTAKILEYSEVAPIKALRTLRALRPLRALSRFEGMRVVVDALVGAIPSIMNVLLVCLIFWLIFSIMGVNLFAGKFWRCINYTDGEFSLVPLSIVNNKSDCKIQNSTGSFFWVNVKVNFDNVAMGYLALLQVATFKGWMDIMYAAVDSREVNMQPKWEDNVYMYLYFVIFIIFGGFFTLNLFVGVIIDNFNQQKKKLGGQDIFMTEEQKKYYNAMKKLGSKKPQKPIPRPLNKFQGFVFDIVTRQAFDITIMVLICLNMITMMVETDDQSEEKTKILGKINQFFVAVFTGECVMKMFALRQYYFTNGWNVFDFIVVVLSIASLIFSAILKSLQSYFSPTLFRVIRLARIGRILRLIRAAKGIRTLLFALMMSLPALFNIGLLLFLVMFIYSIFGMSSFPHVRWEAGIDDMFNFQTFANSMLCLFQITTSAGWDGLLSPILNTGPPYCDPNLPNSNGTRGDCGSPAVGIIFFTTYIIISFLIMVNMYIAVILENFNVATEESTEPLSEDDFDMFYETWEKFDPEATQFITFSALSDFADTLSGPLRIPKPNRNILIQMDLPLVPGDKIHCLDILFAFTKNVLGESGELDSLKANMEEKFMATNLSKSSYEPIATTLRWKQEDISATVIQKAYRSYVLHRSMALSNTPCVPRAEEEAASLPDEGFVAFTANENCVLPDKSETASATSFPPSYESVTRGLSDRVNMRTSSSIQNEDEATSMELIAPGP

For `CC(C)C[C@@H](N)c1nc2cc(C(C)(C)C)ccc2[nH]1` [Example 8, (1R)-1-(5-tert-Butyl-1H-benzimidazol-2-yl)-3-methylbutan-1-amine], the IC50 is 108 nM.

Consider `CC[C@@H](C(N)=O)[C@H](N)c1nc2cc(C(C)(C)C)ccc2[nH]1` [Example 144, (R)-2-((S)-Amino-(6-(tert-butyl)-1H-benzo[d]imidazol-2-yl)methyl)butanamide], for which the IC50 is 41.3 nM.

As to `CC(C)(C)c1ccc2[nH]c([C@@H](N)CCCO)nc2c1` [Example 140, (4S)-4-Amino-4(5-tert-butyl-1H-benzimidazol-2-yl)butan-1-ol], the IC50 is 223 nM. In the case of `NC(=O)C[C@H](N)c1nc2cc(C34CC5CC(CC(C5)C3)C4)ccc2[nH]1` [Example 152, (3S)-3-Amino-3-[5-(tricyclo[3.3.1.1^3,7]dec-1-yl)-1H-benzimidazol-2-yl]propanamide] it was 101 nM. Take `CC[C@H](N)c1nc2cc(C3CCC3)ccc2[nH]1` [Example 113, 1-(5-Cyclobutyl-1H-benzimidazol-2-yl)propylamine]: the IC50 is 749 nM. Consider `N#Cc1ccc(-c2ccc3[nH]c([C@H]4C[C@@H](O)CN4)nc3c2)cc1` [Example 43, 4-{2-[(2R,4R)-4-Hydroxypyrrolidin-2-yl]-1H-benzimidazol-5-yl}benzonitrile], for which the IC50 is 842 nM.

Consider `C[C@@H](O)[C@H](N)c1cn2cc(-c3ccc(C#N)cc3)ccc2n1` [Example 154, 4-{2-[(1R,2R)-1-Amino-2-hydroxypropyl]imidazo[1,2-a]pyridin-6-yl}benzonitrile], for which the IC50 was 108 nM. For `C[C@H](O)[C@H](N)c1nc2cc(C(C)(C)C)ccc2[nH]1` [Example 19, (1R,2S)-1-Amino-1-(5-tert-butyl-1H-benzimidazol-2-yl)propan-2-ol], the IC50 is 176 nM. Regarding `CC[C@@H](C)[C@@H](N)c1nc2cc(C(C)(C)C)ccc2[nH]1` [Example 23, (1R,2R)-1-(5-tert-Butyl-1H-benzimidazol-2-yl)-2-methylbutan-1-amine], the IC50 is 44.6 nM. For `CC1(C)[C@@H]2[C@@H](c3nc4cc(-c5ccc(C#N)cc5)ccc4[nH]3)NC[C@@H]21` [Example 55, 4-{2-[(1R,2S,5S)-6,6-dimethyl-3-azabicyclo[3.1.0]hex-2-yl]-1H-benzimidazol-5-yl}benzonitrile], the IC50 was 77.4 nM.

Regarding `CO[C@H](C)[C@H](N)c1nc2cc(-c3ccc(C#N)cc3C(F)(F)F)ccc2[nH]1` [Example 86, 4-{2-[(1R,2R)-1-Amino-2-methoxypropyl]-1H-benzimidazol-5-yl}-3-(trifluoromethyl)-benzonitrile], the IC50 is 111 nM. In the case of `CO[C@@H](C)[C@@H](N)c1nc2cc(C(C)(C)C)ccc2[nH]1` [Example 94, (1S,2S)-1-(5-tert-Butyl-1H-benzimidazol-2-yl)-2-methoxypropan-1-amine] it was 1080 nM. For `COC(C)(C)C(N)c1nc2cc(C(C)(C)C)ccc2[nH]1` (centres unmarked) [Example 27, 1-(5-tert-Butyl-1H-benzimidazol-2-yl)-2-methoxy-2-methylpropan-1-amine], the IC50 was 153 nM.

On to `CC(C)(C)c1ccc2[nH]c([C@@H](N)C(C)(C)C)nc2c1` [Example 6, (1S)-1-(5-tert-Butyl-1H-benzimidazol-2-yl)-2,2-dimethylpropan-1-amine], for which the IC50 was 433 nM. As to `N#Cc1ccc(-c2ccc3[nH]c([C@@H](N)c4ccccc4)nc3c2)cc1` [Example 42, 4-{2-[(S)-Amino(phenyl)methyl]-1H-benzimidazol-5-yl}benzonitrile], the IC50 is 122 nM. `C[C@H](O)[C@@H](N)c1nc2cc(-c3ccc(C#N)cc3)ccc2[nH]1` [Example 62, 4-{2-[(1S,25)-1-amino-2-hydroxypropyl]-1H-benzimidazol-5-yl}benzonitrile]: the IC50 was 580 nM. With `N#Cc1ccc(-c2ccc3[nH]c(C4(N)Cc5ccccc5C4)nc3c2)cc1` [Example 34, 4-[2-(2-Amino-2,3-dihydro-1H-inden-2-yl)-1H-benzimidazol-5-yl]benzonitrile], the IC50 is 30.6 nM. In the case of `C[C@@H](C(N)=O)[C@H](N)c1nc2c(Cl)c(-c3ccc(C#N)c(F)c3)ccc2[nH]1` [Example 110, (2R,3S)-3-Amino-3-[4-chloro-5-(4-cyano-3-fluorophenyl)-1H-benzimidazol-2-yl]-2-methylpropanamide] it was 233 nM. With `N#Cc1ccc(-c2ccc3[nH]c([C@H]4NCC[C@@H]4O)nc3c2)cc1` [Example 50, 4-{2-[(2R,3S)-3-Hydroxypyrrolidin-2-yl]-1H-benzimidazol-5-yl}benzonitrile], the IC50 was 1840 nM.

Consider `CC(C)(C)c1ccc2[nH]c(C3(N)Cc4ccccc4C3)nc2c1` [Example 2, 2-(5-tert-Butyl-1H-benzimidazol-2-yl)-2,3-dihydro-1H-inden-2-amine], for which the IC50 is 76 nM.

Turning to `CC(C)(C)c1ccc2[nH]c([C@H](N)CC(N)=O)nc2c1` [Example 28, (3R)-3-Amino-3-(5-tert-butyl-1H-benzimidazol-2-yl)propanamide], the IC50 is 130 nM. In the case of `CC(C)(C)c1ccc2[nH]c([C@@H](N)CO)nc2c1` [Example 20, (2R)-2-Amino-2-(5-tert-butyl-1H-benzimidazol-2-yl)ethanol] it was 106 nM; in that of `CCC(C)(C)c1ccc2[nH]c([C@@H]3C[C@H](O)CN3)nc2c1` [Example 29, (3S,5S)-5-[5-(2-Methylbutan-2-yl)-1H-benzimidazol-2-yl]pyrrolidin-3-ol], 390 nM.

In the case of `CO[C@H](C)[C@H](N)c1nc2cc(-c3ccc(C#N)cc3F)ccc2[nH]1` [Example 90, 4-{2-[(1R,2R)-1-Amino-2-methoxypropyl]-1H-benzimidazol-5-yl}-3-fluorobenzonitrile], the IC50 is 18.7 nM. The value for `CC[C@@H](N)c1nc2cc(-c3ccc(C#N)cc3)ccc2[nH]1` [Example 53, 4-{2-[(1R)-1-aminopropyl]-1H-benzimidazol-5-yl}benzonitrile] was 562 nM; that for `CC(C)(C)Cc1ccc2[nH]c(C3(N)Cc4ccccc4C3)nc2c1` [Example 116, 2-[6-(2,2-Dimethylpropyl)-1H-benzimidazol-2-yl]-2,3-dihydro-1H-inden-2-amine] was 222 nM; that for `N#Cc1ccc(-c2ccc3[nH]c([C@@H]4CCCCN4)nc3c2)cc1` [Example 51, 4-{2-[(2S)-Piperidin-2-yl]-1H-benzimidazol-5-yl}benzonitrile] was 3130 nM. Regarding `CC[C@@H](O)[C@H](N)c1nc2cc(C(C)(C)C)ccc2[nH]1` [Example 139, (1R,2R)-1-Amino-1-(5-tert-butyl-1H-benzimidazol-2-yl)butan-2-ol], the IC50 is 43.5 nM. The value for `CC(C)(C)c1ccc2[nH]c([C@H](N)CCO)nc2c1` [Example 134, (3R)-3-Amino-3-(5-tert-butyl-1H-benzimidazol-2-yl)propan-1-ol] was 355 nM; that for `CCC(C)(C)c1ccc2[nH]c([C@@H](N)[C@@H](C)OC)nc2c1` [Example 38, (1R,2R)-2-Methoxy-1-[5-(2-methylbutan-2-yl)-1H-benzimidazol-2-yl]propan-1-amine] was 41.9 nM. Regarding `CC(C)(C)c1ccc2[nH]c([C@H](N)C(C)(C)C)nc2c1` [Example 15, (1R)-1-(5-tert-Butyl-1H-benzimidazol-2-yl)-2,2-dimethylpropan-1-amine], the IC50 is 123 nM. On to `N#Cc1ccc(-c2ccc3[nH]c([C@@H](N)C4CCCC4)nc3c2)cc1` [Example 32, 4-{2-[(S)-Amino(cyclopentyl)methyl]-1H-benzimidazol-5-yl}benzonitrile], for which the IC50 was 163 nM.
